Measured values reported in paper PMC6364417, “Kinase inhibitor library screening identifies synergistic drug combinations effective in sensitive and resistant melanoma cells” (Journal of Experimental & Clinical Cancer Research : CR, 2019).

Columns and labels:
Assay in all cases: Kinase inhibitor library screening, PrestoBlue cell viability, 1 or 10 μM, 72 h
[1] = tested on: A375-XP cells (Vemurafenib-resistant)
[2] = tested on: IGR37-GP cells (Dabrafenib-resistant)
[3] = tested on: 501Mel-GP cells (Dabrafenib-resistant)
IGR37 cells (parental) = tested on: IGR37 cells (parental)
[4] = tested on: IGR37-XP cells (Vemurafenib-resistant)
501Mel cells (parental) = tested on: 501Mel cells (parental)
In short: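 PrestoBlue viability readout after 72 h exposure to each inhibitor at 1 or 10 μM, reported relative to untreated cells as % viability. Lines tested: sensitive parental plus derivatives resistant to Vemurafenib (XP) or Dabrafenib (GP), each run at least in duplicate.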

[5] = tested on: 501Mel-XP cells (Vemurafenib-resistant)
A375 cells (parental) = tested on: A375 cells (parental)
[6] = tested on: A375-GP cells (Dabrafenib-resistant)

Cc1ccc(NC(=O)c2cccc(N(C)C)c2)cc1NC(=O)c1ccc(O)cc1 [ZM 336372]
cell viability (kinase inhibitor library screening) ([1]; A375 XP, 1μΜ, in %): 103.8 | cell viability (kinase inhibitor library screening) ([1]; A375 XP, 10μΜ, in %): 95.8 | cell viability (kinase inhibitor library screening) ([2]; IGR37 GP, 1μΜ, in %): 99.1 | cell viability (kinase inhibitor library screening) ([2]; IGR37 GP, 10μΜ, in %): 96.2 | cell viability (kinase inhibitor library screening) ([3]; 501Mel GP, 1μΜ, in %): 108.5 | cell viability (kinase inhibitor library screening) ([3]; 501Mel GP, 10μΜ, in %): 81.6 | cell viability (kinase inhibitor library screening) (IGR37 cells (parental); IGR37 Parental, 1μΜ, in %): 102.6 | cell viability (kinase inhibitor library screening) (IGR37 cells (parental); IGR37 Parental, 10μΜ, in %): 105.1 | cell viability (kinase inhibitor library screening) ([4]; IGR37 XP, 1μΜ, in %): 108.8 | cell viability (kinase inhibitor library screening) ([4]; IGR37 XP, 10μΜ, in %): 93.5 | cell viability (kinase inhibitor library screening) (501Mel cells (parental); 501Mel Parental, 1μΜ, in %): 98.4 | cell viability (kinase inhibitor library screening) (501Mel cells (parental); 501Mel Parental, 10μΜ, in %): 89.6 | cell viability (kinase inhibitor library screening) ([5]; 501Mel XP, 1μΜ, in %): 90.4 | cell viability (kinase inhibitor library screening) ([5]; 501Mel XP, 10μΜ, in %): 83.5 | cell viability (kinase inhibitor library screening) (A375 cells (parental); A375 Parental, 1μΜ, in %): 103.4 | cell viability (kinase inhibitor library screening) (A375 cells (parental); A375 Parental, 10μΜ, in %): 91.8 | cell viability (kinase inhibitor library screening) ([6]; A375 GP, 10μΜ, in %): 82.7

N#Cc1c(O)c2c(-c3ccc(-c4ccccc4O)cc3)csc2[nH]c1=O [A-769662]
cell viability (kinase inhibitor library screening) ([1]; A375 XP, 1μΜ, 72 h): 104.3% | cell viability (kinase inhibitor library screening) ([2]; IGR37 GP, 10μΜ, 72 h): 94.7% | cell viability (kinase inhibitor library screening) ([3]; 501Mel GP, 10μΜ, 72 h): 87.9% | cell viability (kinase inhibitor library screening) (IGR37 cells (parental); IGR37 Parental, 1μΜ, 72 h): 105.9% | cell viability (kinase inhibitor library screening) (IGR37 cells (parental); IGR37 Parental, 10μΜ, 72 h): 111.3% | cell viability (kinase inhibitor library screening) ([4]; IGR37 XP, 1μΜ, 72 h): 104.5% | cell viability (kinase inhibitor library screening) ([4]; IGR37 XP, 10μΜ, 72 h): 84.8% | cell viability (kinase inhibitor library screening) (501Mel cells (parental); 501Mel Parental, 1μΜ, 72 h): 99.2% | cell viability (kinase inhibitor library screening) (501Mel cells (parental); 501Mel Parental, 10μΜ, 72 h): 97.1% | cell viability (kinase inhibitor library screening) ([5]; 501Mel XP, 1μΜ, 72 h): 97.4% | cell viability (kinase inhibitor library screening) ([5]; 501Mel XP, 10μΜ, 72 h): 85.6% | cell viability (kinase inhibitor library screening) (A375 cells (parental); A375 Parental, 10μΜ, 72 h): 97.0% | cell viability (kinase inhibitor library screening) (A375 cells (parental); A375 Parental, 1μΜ, 72 h): 105.0% | cell viability (kinase inhibitor library screening) ([6]; A375 GP, 10μΜ, 72 h): 96.0%

c1ccc2c(-c3cnn4cc(-c5ccc(N6CCNCC6)cc5)cnc34)ccnc2c1 [LDN193189]
cell viability (kinase inhibitor library screening) ([1]; A375 XP, 1μΜ, in %): 98.9 | cell viability (kinase inhibitor library screening) ([1]; A375 XP, 10μΜ, in %): 2.6 | cell viability (kinase inhibitor library screening) ([2]; IGR37 GP, 1μΜ, in %): 94.5 | cell viability (kinase inhibitor library screening) ([2]; IGR37 GP, 10μΜ, in %): 4.6 | cell viability (kinase inhibitor library screening) ([3]; 501Mel GP, 1μΜ, in %): 129.1 | cell viability (kinase inhibitor library screening) ([3]; 501Mel GP, 10μΜ, in %): 1.7 | cell viability (kinase inhibitor library screening) (IGR37 cells (parental); IGR37 Parental, 10μΜ, in %): 0.221 | cell viability (kinase inhibitor library screening) ([4]; IGR37 XP, 1μΜ, in %): 103.7 | cell viability (kinase inhibitor library screening) ([4]; IGR37 XP, 10μΜ, in %): 3.2 | cell viability (kinase inhibitor library screening) (501Mel cells (parental); 501Mel Parental, 1μΜ, in %): 119.0 | cell viability (kinase inhibitor library screening) (501Mel cells (parental); 501Mel Parental, 10μΜ, in %): 0.949 | cell viability (kinase inhibitor library screening) ([5]; 501Mel XP, 10μΜ, in %): 0.8 | cell viability (kinase inhibitor library screening) (A375 cells (parental); A375 Parental, 1μΜ, in %): 104.5 | cell viability (kinase inhibitor library screening) (A375 cells (parental); A375 Parental, 10μΜ, in %): 1.7 | cell viability (kinase inhibitor library screening) ([6]; A375 GP, 1μΜ, in %): 104.8 | cell viability (kinase inhibitor library screening) ([6]; A375 GP, 10μΜ, in %): 3.4

CN(C)C/C=C/C(=O)Nc1cc2c(Nc3ccc(F)c(Cl)c3)ncnc2cc1O[C@H]1CCOC1 [Afatinib (BIBW2992)]
viability at 1 µM ([1]; Homo sapiens, A-375, 72 h, read-out: cell viability, A375 XP, 1μΜ): 102% | viability at 10 µM ([1]; Homo sapiens, A-375, 72 h, read-out: cell viability, A375 XP, 10μΜ): 4.1% | viability at 1 µM ([2]; Homo sapiens, IGR-37, 72 h, read-out: cell viability, IGR37 GP, 1μΜ): 96.9% | viability at 10 µM ([2]; Homo sapiens, IGR-37, 72 h, read-out: cell viability, IGR37 GP, 10μΜ): 20.9% | viability at 1 µM ([3]; Homo sapiens, 72 h, read-out: cell viability, 501Mel GP, 1μΜ): 98.8% | viability at 10 µM ([3]; Homo sapiens, 72 h, read-out: cell viability, 501Mel GP, 10μΜ): 6.2% | viability at 1 µM (IGR37 cells (parental); Homo sapiens, IGR-37, 72 h, read-out: cell viability, IGR37 Parental, 1μΜ): 103% | viability at 10 µM (IGR37 cells (parental); Homo sapiens, IGR-37, 72 h, read-out: cell viability, IGR37 Parental, 10μΜ): 44.5% | viability at 1 µM ([4]; Homo sapiens, IGR-37, 72 h, read-out: cell viability, IGR37 XP, 1μΜ): 94.7% | viability at 10 µM ([4]; Homo sapiens, IGR-37, 72 h, read-out: cell viability, IGR37 XP, 10μΜ): 10% | viability at 1 µM (501Mel cells (parental); Homo sapiens, 72 h, read-out: cell viability, 501Mel Parental, 1μΜ): 102% | viability at 10 µM (501Mel cells (parental); Homo sapiens, 72 h, read-out: cell viability, 501Mel Parental, 10μΜ): 1.5% | viability at 1 µM ([5]; Homo sapiens, 72 h, read-out: cell viability, 501Mel XP, 1μΜ): 88.6% | viability at 10 µM ([5]; Homo sapiens, 72 h, read-out: cell viability, 501Mel XP, 10μΜ): -0.4% | viability at 1 µM (A375 cells (parental); Homo sapiens, A-375, 72 h, read-out: cell viability, A375 Parental, 1μΜ): 100% | viability at 10 µM (A375 cells (parental); Homo sapiens, A-375, 72 h, read-out: cell viability, A375 Parental, 10μΜ): 13.6% | viability at 1 µM ([6]; Homo sapiens, A-375, 72 h, read-out: cell viability, A375 GP, 1μΜ): 94.1% | viability at 10 µM ([6]; Homo sapiens, A-375, 72 h, read-out: cell viability, A375 GP, 10μΜ): 12.6%

COc1cc(Nc2ncc(F)c(Nc3ccc4c(n3)NC(=O)C(C)(C)O4)n2)cc(OC)c1OC [R406(free base)]
cell viability (kinase inhibitor library screening) ([1]; A375 XP, 1μΜ, in %): 103.9 | cell viability (kinase inhibitor library screening) ([1]; A375 XP, 10μΜ, in %): 63.6 | cell viability (kinase inhibitor library screening) ([2]; IGR37 GP, 1μΜ, in %): 84.7 | cell viability (kinase inhibitor library screening) ([2]; IGR37 GP, 10μΜ, in %): 45.4 | cell viability (kinase inhibitor library screening) ([3]; 501Mel GP, 1μΜ, in %): 93.8 | cell viability (kinase inhibitor library screening) ([3]; 501Mel GP, 10μΜ, in %): 48.0 | cell viability (kinase inhibitor library screening) (IGR37 cells (parental); IGR37 Parental, 1μΜ, in %): 97.4 | cell viability (kinase inhibitor library screening) (IGR37 cells (parental); IGR37 Parental, 10μΜ, in %): 86.8 | cell viability (kinase inhibitor library screening) ([4]; IGR37 XP, 1μΜ, in %): 92.0 | cell viability (kinase inhibitor library screening) ([4]; IGR37 XP, 10μΜ, in %): 20.0 | cell viability (kinase inhibitor library screening) (501Mel cells (parental); 501Mel Parental, 10μΜ, in %): 57.6 | cell viability (kinase inhibitor library screening) ([5]; 501Mel XP, 1μΜ, in %): 77.6 | cell viability (kinase inhibitor library screening) ([5]; 501Mel XP, 10μΜ, in %): 29.6 | cell viability (kinase inhibitor library screening) (A375 cells (parental); A375 Parental, 1μΜ, in %): 100.1 | cell viability (kinase inhibitor library screening) (A375 cells (parental); A375 Parental, 10μΜ, in %): 50.6 | cell viability (kinase inhibitor library screening) ([6]; A375 GP, 10μΜ, in %): 44.5

CC(O)C(=O)O.CC(O)C(=O)O.CN1CCN(c2ccc3nc(-c4c(N)c5c(F)cccc5[nH]c4=O)[nH]c3c2)CC1
cell viability, A375 XP, 10μΜ ([1]; A375 XP, 10μΜ, 72 h, in %): 59.2 | cell viability, IGR37 GP, 10μΜ ([2]; IGR37 GP, 10μΜ, 72 h): 46.5% | cell viability, IGR37 GP, 1μΜ ([2]; IGR37 GP, 1μΜ, 72 h, in %): 106.1 | cell viability, 501Mel GP, 1μΜ ([3]; 501Mel GP, 1μΜ, 72 h, in %): 100.0 | cell viability, 501Mel GP, 10μΜ ([3]; 501Mel GP, 10μΜ, 72 h, in %): 0.0395 | cell viability, IGR37 Parental, 1μΜ (IGR37 cells (parental); IGR37 Parental, 1μΜ, 72 h, in %): 105.9 | cell viability, IGR37 Parental, 10μΜ (IGR37 cells (parental); IGR37 Parental, 10μΜ, 72 h, in %): 76.1 | cell viability, IGR37 XP, 10μΜ ([4]; IGR37 XP, 10μΜ, 72 h): 33% | cell viability, IGR37 XP, 1μΜ ([4]; IGR37 XP, 1μΜ, 72 h, in %): 106.9 | cell viability, 501Mel Parental, 1μΜ (501Mel cells (parental); 501Mel Parental, 1μΜ, 72 h, in %): 106.3 | cell viability, 501Mel Parental, 10μΜ (501Mel cells (parental); 501Mel Parental, 10μΜ, 72 h, in %): 0.756 | cell viability, 501Mel XP, 1μΜ ([5]; 501Mel XP, 1μΜ, 72 h, in %): 91.1 | cell viability, 501Mel XP, 10μΜ ([5]; 501Mel XP, 10μΜ, 72 h, in %): -0.0481 | cell viability, A375 Parental, 1μΜ (A375 cells (parental); A375 Parental, 1μΜ, 72 h, in %): 106.9 | cell viability, A375 Parental, 10μΜ (A375 cells (parental); A375 Parental, 10μΜ, 72 h, in %): 48.0 | cell viability, A375 GP, 1μΜ ([6]; A375 GP, 1μΜ, 72 h, in %): 91.8 | cell viability, A375 GP, 10μΜ ([6]; A375 GP, 10μΜ, 72 h, in %): 46.4
